Data as given in article PMC7265341, “Quantifying CDK inhibitor selectivity in live cells” (Nature Communications, 2020).
Read-outs that look alike come from different tables or passages of the source.

Columns and labels:
CDK6/Cyclin D1 = CDK6/Cyclin D1 (Homo sapiens, UniProt Q00534); test: NanoBRET live-cell target engagement, NanoLuc-CDK6/Cyclin D1 in HEK-293; type: binding; details: 10µM, read-out: CDK6/D1 Inhibition at 10µM (%)
CDK14/Cyclin Y = CDK14/Cyclin Y (Homo sapiens, UniProt O94921); test: NanoBRET live-cell target engagement, CDK14-NanoLuc/Cyclin Y in HEK-293; type: binding; details: 10µM, read-out: CDK14/Y Inhibition at 10µM (%)
CDK20/Cyclin H = CDK20/Cyclin H (Homo sapiens, UniProt Q8IZL9); test: NanoBRET live-cell target engagement, NanoLuc-CDK20/Cyclin H in HEK-293; type: binding; details: 10µM, read-out: CDK20/H Inhibition at 10µM (%)
CDK11A/Cyclin L2 = target: T1, CDK11A/Cyclin L2 (Homo sapiens, UniProt Q9UQ88); test: NanoBRET live-cell target engagement, CDK11A-NanoLuc/Cyclin L2 in HEK-293; type: binding; details: 10µM, read-out: CDK11a/L2 Inhibition at 10µM (%)
T1 sequence (Q9UQ88 1-783): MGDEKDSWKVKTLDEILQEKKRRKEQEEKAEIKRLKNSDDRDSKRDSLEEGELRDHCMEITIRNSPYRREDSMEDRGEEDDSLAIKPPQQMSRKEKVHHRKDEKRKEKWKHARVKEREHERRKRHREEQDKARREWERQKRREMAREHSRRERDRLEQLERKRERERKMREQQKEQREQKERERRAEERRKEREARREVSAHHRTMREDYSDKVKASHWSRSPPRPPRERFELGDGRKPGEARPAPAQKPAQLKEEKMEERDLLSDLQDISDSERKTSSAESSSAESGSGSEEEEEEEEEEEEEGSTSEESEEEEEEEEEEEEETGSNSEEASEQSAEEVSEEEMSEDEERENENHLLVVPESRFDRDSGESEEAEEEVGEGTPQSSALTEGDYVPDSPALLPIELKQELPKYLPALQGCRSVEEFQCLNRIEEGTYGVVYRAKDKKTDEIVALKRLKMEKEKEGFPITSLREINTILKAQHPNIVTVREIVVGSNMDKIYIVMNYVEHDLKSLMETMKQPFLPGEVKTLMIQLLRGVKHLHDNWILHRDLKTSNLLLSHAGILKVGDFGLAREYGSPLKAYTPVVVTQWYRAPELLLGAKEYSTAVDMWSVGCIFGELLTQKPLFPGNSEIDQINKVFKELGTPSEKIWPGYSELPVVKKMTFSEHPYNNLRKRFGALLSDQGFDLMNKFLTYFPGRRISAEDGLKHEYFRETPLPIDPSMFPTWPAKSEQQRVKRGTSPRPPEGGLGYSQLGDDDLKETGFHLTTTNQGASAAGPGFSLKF

CDK19/Cyclin C = CDK19/Cyclin C (Homo sapiens, UniProt Q9BWU1); test: NanoBRET live-cell target engagement, NanoLuc-CDK19/Cyclin C in HEK-293; details: read-out: CDK19/C Inhibition at 10µM (%), 10µM
CDK19/Cyclin C, sequence (Q9BWU1 whole entry): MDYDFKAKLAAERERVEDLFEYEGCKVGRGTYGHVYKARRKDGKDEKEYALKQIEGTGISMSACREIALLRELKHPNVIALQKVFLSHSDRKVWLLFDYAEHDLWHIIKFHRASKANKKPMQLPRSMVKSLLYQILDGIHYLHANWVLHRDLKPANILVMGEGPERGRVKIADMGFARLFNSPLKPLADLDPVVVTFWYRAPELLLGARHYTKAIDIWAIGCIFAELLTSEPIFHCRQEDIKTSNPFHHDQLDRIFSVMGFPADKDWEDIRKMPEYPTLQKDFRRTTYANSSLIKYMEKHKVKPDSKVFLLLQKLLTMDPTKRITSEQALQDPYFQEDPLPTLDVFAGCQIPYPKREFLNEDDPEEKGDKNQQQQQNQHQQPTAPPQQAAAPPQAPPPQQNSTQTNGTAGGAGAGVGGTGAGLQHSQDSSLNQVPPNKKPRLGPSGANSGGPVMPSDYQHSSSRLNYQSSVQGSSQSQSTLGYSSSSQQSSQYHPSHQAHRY
CDK19/Cyclin C, sequence (P24863 whole entry partner): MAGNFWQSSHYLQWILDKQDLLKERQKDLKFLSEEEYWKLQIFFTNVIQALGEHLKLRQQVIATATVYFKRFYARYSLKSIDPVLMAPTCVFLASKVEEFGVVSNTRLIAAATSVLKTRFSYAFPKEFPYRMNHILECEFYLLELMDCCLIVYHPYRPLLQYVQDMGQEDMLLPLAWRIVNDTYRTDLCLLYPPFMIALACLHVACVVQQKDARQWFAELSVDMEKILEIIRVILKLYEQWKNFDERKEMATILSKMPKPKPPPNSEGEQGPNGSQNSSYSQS

CDK11B/Cyclin L2 = CDK11B/Cyclin L2 (Homo sapiens, UniProt P21127); test: NanoBRET live-cell target engagement, CDK11B-NanoLuc/Cyclin L2 in HEK-293; type: binding; details: 10µM, read-out: CDK11b/L2 Inhibition at 10µM (%)
CDK7 = CDK7 (Homo sapiens, UniProt P50613); test: NanoBRET live-cell target engagement, NanoLuc-CDK7 in HEK-293; type: binding; details: 10µM, read-out: CDK7 Inhibition at 10µM (%)
CDK5/CDK5R1 = CDK5/CDK5R1 (Homo sapiens, UniProt Q00535); test: NanoBRET live-cell target engagement, CDK5-NanoLuc/CDK5R1 in HEK-293; type: binding; details: 10µM, read-out: CDK5/CDK5R1 Inhibition at 10µM (%)
CDK12/Cyclin K = CDK12/Cyclin K (Homo sapiens, UniProt Q9NYV4); test: NanoBRET live-cell target engagement, CDK12-NanoLuc/Cyclin K in HEK-293; type: binding; details: 10µM, read-out: CDK12/K Inhibition at 10µM (%)
CDK1/Cyclin E1 = CDK1/Cyclin E1 (Homo sapiens, UniProt P06493); test: NanoBRET live-cell target engagement, CDK1-NanoLuc/Cyclin E1 in HEK-293; type: binding; details: 10µM, read-out: CDK1/E1 Inhibition at 10µM (%)
CDK1/Cyclin E1, sequence (P06493 whole entry): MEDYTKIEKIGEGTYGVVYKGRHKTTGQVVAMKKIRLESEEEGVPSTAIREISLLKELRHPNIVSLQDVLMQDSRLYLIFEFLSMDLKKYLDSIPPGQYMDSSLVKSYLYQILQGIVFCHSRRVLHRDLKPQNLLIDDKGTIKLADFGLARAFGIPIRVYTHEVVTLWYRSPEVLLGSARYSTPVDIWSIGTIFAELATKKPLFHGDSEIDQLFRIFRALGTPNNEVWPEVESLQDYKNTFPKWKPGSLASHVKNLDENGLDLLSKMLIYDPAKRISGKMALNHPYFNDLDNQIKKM
CDK1/Cyclin E1, sequence (P24864 whole entry partner): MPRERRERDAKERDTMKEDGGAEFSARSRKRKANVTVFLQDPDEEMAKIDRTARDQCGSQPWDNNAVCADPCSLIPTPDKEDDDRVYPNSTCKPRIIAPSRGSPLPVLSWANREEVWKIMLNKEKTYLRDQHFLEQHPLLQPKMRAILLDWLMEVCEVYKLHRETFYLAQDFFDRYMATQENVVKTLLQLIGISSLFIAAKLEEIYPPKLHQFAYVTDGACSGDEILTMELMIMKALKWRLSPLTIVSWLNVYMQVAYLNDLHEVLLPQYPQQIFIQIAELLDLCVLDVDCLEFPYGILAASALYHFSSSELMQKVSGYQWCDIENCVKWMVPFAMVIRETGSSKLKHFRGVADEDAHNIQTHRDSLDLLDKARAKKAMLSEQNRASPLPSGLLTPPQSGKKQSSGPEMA

CDK10/Cyclin L2 = CDK10/Cyclin L2 (Homo sapiens, UniProt Q15131); test: NanoBRET live-cell target engagement, CDK10-NanoLuc/Cyclin L2 in HEK-293; details: read-out: CDK10/L2 Inhibition at 10µM (%), 10µM
CDK8/Cyclin C = CDK8/Cyclin C (Homo sapiens, UniProt P49336); test: NanoBRET live-cell target engagement, NanoLuc-CDK8/Cyclin C in HEK-293; type: binding; details: 10µM, read-out: CDK8/C Inhibition at 10µM (%)
CDK17/Cyclin Y = CDK17/Cyclin Y (Homo sapiens, UniProt Q00537); test: NanoBRET live-cell target engagement, CDK17-NanoLuc/Cyclin Y in HEK-293; type: binding; details: 10µM, read-out: CDK17/Y Inhibition at 10µM (%)
CDK17/Cyclin Y, sequence (Q00537 whole entry): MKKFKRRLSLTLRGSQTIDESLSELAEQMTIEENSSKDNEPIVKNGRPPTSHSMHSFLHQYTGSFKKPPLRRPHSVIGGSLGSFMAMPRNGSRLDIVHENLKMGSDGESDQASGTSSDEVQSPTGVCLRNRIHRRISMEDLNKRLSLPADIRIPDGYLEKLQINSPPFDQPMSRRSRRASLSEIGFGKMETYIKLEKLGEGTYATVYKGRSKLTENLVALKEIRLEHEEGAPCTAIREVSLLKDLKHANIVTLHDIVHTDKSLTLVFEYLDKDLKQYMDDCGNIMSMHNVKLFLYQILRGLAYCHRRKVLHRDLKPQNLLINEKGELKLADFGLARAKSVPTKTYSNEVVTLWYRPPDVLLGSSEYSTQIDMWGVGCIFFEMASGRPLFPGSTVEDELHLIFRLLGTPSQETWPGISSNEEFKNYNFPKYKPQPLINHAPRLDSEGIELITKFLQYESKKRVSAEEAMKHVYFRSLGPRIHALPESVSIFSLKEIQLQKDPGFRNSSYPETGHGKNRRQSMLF
CDK17/Cyclin Y, sequence (Q8ND76 whole entry partner): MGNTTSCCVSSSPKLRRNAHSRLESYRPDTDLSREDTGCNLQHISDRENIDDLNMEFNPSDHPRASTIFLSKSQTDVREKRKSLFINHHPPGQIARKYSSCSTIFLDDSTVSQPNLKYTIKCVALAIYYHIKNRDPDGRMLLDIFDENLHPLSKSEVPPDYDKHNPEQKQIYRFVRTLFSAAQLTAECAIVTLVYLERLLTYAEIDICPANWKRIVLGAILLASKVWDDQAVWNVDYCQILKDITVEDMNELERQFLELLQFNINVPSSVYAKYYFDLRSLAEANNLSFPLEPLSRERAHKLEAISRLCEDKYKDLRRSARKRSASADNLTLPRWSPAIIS

CDK18/Cyclin Y = CDK18/Cyclin Y (Homo sapiens, UniProt Q07002); test: NanoBRET live-cell target engagement, CDK18-NanoLuc/Cyclin Y in HEK-293; type: binding; details: 10µM, read-out: CDK18/Y Inhibition at 10µM (%)
CDK18/Cyclin Y, sequence (Q07002 whole entry): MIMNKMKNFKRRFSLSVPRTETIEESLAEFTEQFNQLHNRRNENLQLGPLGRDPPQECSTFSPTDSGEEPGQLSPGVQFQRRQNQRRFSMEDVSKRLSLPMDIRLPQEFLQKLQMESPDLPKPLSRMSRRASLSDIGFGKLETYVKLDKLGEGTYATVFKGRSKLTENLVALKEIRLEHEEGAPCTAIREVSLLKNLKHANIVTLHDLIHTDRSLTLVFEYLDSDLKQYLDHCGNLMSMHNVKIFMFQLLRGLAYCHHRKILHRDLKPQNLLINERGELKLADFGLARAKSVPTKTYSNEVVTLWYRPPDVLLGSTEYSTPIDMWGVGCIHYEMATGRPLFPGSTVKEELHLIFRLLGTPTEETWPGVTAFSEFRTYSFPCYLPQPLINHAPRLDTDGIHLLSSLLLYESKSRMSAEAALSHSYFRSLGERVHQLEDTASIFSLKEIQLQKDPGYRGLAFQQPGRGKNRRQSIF
CDK18/Cyclin Y, sequence (Q8ND76 whole entry partner): as the sequence (Q8ND76 whole entry partner) above

CDK16/Cyclin Y = CDK16/Cyclin Y (Homo sapiens, UniProt Q00536); test: NanoBRET live-cell target engagement, CDK16-NanoLuc/Cyclin Y in HEK-293; type: binding; details: 10µM, read-out: CDK16/Y Inhibition at 10µM (%)
CDK4/Cyclin D1 = CDK4/Cyclin D1 (Homo sapiens, UniProt P11802); test: NanoBRET live-cell target engagement, NanoLuc-CDK4/Cyclin D1 in HEK-293; type: binding; details: 10µM, read-out: CDK4/D1 Inhibition at 10µM (%)
CDK15/Cyclin Y = CDK15/Cyclin Y (Homo sapiens, UniProt Q96Q40); test: NanoBRET live-cell target engagement, NanoLuc-CDK15/Cyclin Y in HEK-293; type: binding; details: 10µM, read-out: CDK15/Y Inhibition at 10µM (%)
CDK15/Cyclin Y, sequence (Q96Q40 whole entry): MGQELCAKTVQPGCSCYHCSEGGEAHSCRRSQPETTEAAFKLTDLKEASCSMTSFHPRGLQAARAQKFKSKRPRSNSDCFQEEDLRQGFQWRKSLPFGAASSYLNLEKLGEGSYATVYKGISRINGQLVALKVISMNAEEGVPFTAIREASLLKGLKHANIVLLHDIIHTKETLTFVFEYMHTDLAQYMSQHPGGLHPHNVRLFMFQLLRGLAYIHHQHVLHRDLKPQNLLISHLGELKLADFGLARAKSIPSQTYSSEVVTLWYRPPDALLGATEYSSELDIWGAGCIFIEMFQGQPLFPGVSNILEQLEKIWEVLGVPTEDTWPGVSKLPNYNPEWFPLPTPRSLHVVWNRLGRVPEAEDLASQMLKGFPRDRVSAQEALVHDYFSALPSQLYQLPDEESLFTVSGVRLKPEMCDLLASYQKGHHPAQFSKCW
CDK15/Cyclin Y, sequence (Q8ND76 whole entry partner): as the sequence (Q8ND76 whole entry partner) above

CDK9/Cyclin K = CDK9/Cyclin K (Homo sapiens, UniProt P50750); test: NanoBRET live-cell target engagement, NanoLuc-CDK9/Cyclin K in HEK-293; type: binding; details: 10µM, read-out: CDK9/K Inhibition at 10µM (%)
CDK9/Cyclin K, sequence (P50750 whole entry): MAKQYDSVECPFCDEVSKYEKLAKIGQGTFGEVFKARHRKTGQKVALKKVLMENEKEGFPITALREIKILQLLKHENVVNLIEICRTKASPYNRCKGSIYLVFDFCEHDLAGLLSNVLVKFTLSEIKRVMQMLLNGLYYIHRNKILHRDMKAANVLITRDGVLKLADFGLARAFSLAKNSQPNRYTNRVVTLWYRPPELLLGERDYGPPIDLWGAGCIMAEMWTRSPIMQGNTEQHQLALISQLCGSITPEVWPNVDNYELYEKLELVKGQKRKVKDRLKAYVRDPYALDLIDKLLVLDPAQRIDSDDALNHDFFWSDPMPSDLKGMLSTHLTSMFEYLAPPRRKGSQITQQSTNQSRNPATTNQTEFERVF
CDK9/Cyclin K, sequence (O75909 whole entry partner): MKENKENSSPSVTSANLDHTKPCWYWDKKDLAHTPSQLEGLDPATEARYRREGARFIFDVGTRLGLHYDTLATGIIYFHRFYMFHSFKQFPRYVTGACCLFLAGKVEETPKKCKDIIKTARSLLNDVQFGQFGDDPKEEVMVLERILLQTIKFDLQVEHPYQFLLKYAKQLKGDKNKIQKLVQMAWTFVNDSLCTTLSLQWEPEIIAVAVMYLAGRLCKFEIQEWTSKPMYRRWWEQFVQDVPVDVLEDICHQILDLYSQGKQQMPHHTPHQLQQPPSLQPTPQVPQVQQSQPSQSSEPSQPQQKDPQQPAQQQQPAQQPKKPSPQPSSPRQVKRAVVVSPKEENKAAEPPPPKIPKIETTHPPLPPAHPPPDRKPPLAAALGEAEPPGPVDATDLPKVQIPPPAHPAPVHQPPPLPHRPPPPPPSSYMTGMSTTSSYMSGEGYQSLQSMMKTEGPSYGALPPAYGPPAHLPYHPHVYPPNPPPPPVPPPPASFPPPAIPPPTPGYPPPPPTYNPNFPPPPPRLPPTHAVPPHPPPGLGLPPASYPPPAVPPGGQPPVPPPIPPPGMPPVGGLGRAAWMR

CDK13/Cyclin K = CDK13/Cyclin K (Homo sapiens, UniProt Q14004); test: NanoBRET live-cell target engagement, CDK13-NanoLuc/Cyclin K in HEK-293; type: binding; details: 10µM, read-out: CDK13/K Inhibition at 10µM (%)

CDK6/Cyclin D1, sequence (Q00534 whole entry): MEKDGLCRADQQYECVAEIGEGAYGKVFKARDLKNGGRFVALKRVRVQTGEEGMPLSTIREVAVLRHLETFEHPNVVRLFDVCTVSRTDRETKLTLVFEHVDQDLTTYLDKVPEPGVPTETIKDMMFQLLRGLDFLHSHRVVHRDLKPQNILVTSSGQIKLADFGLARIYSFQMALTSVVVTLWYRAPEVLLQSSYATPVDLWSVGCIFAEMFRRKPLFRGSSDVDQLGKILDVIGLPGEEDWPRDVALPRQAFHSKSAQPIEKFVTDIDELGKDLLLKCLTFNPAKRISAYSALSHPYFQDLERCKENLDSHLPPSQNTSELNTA
CDK6/Cyclin D1, sequence (P24385 whole entry partner): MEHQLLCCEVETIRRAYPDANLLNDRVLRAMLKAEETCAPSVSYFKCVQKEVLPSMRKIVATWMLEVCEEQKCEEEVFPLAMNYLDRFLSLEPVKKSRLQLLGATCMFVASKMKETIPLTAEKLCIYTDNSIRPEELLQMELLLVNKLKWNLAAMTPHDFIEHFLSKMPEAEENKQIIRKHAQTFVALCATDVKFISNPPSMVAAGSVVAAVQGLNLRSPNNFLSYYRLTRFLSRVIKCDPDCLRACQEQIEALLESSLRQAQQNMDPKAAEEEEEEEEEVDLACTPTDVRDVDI

CC(C)[C@H](CO)Nc1nc(Nc2ccc(C(=O)O)c(Cl)c2)c2ncn(C(C)C)c2n1 [Purvalanol B]
inhibition at 10 µM (CDK6/Cyclin D1; average of experiments): -0.5%
inhibition at 10 µM (CDK6/Cyclin D1; independent experiment 1): 5.9%
inhibition at 10 µM (CDK6/Cyclin D1; independent experiment 2): -7%
inhibition at 10 µM (CDK14/Cyclin Y; average of experiments): -0.116%
inhibition at 10 µM (CDK14/Cyclin Y; independent experiment 1): -3.3%
inhibition at 10 µM (CDK14/Cyclin Y; independent experiment 2): 3.1%
inhibition at 10 µM (CDK20/Cyclin H; independent experiment 1): -3.3%
inhibition at 10 µM (CDK20/Cyclin H; independent experiment 2): -1.2%
inhibition at 10 µM (CDK11A/Cyclin L2; average of experiments): -4.5%
inhibition at 10 µM (CDK11A/Cyclin L2; independent experiment 1): -2.4%
inhibition at 10 µM (CDK11A/Cyclin L2; independent experiment 2): -6.6%
inhibition at 10 µM (CDK19/Cyclin C; average of experiments): 8%
inhibition at 10 µM (CDK19/Cyclin C; independent experiment 1): 12.7%
inhibition at 10 µM (CDK19/Cyclin C; independent experiment 2): 3.4%
inhibition at 10 µM (CDK11B/Cyclin L2; average of experiments): 3.9%
inhibition at 10 µM (CDK11B/Cyclin L2; independent experiment 1): 7.1%
inhibition at 10 µM (CDK11B/Cyclin L2; independent experiment 2): 0.8%
inhibition at 10 µM (CDK7; average of experiments): -0.0779%
inhibition at 10 µM (CDK7; independent experiment 1): -0.361%
inhibition at 10 µM (CDK7; independent experiment 2): 0.2%
inhibition at 10 µM (CDK5/CDK5R1; average of experiments): 63.7%
inhibition at 10 µM (CDK5/CDK5R1; independent experiment 1): 36.3%
inhibition at 10 µM (CDK5/CDK5R1; independent experiment 2): 91%
inhibition at 10 µM (CDK12/Cyclin K; average of experiments): 1.7%
inhibition at 10 µM (CDK12/Cyclin K; independent experiment 1): 4.5%
inhibition at 10 µM (CDK12/Cyclin K; independent experiment 2): -1.1%
inhibition at 10 µM (CDK1/Cyclin E1; average of experiments): 21.2%
inhibition at 10 µM (CDK1/Cyclin E1; independent experiment 1): 18.1%
inhibition at 10 µM (CDK1/Cyclin E1; independent experiment 2): 24.3%
inhibition at 10 µM (CDK10/Cyclin L2; average of experiments): -1.9%
inhibition at 10 µM (CDK10/Cyclin L2; independent experiment 1): -2.4%
inhibition at 10 µM (CDK10/Cyclin L2; independent experiment 2): -1.5%
inhibition at 10 µM (CDK8/Cyclin C; average of experiments): 1.6%
inhibition at 10 µM (CDK8/Cyclin C; independent experiment 1): 3.2%
inhibition at 10 µM (CDK8/Cyclin C; independent experiment 2): -0.0599%
inhibition at 10 µM (CDK17/Cyclin Y; average of experiments): 2.5%
inhibition at 10 µM (CDK17/Cyclin Y; independent experiment 1): 0.32%
inhibition at 10 µM (CDK17/Cyclin Y; independent experiment 2): 4.7%
inhibition at 10 µM (CDK18/Cyclin Y; average of experiments): 5.4%
inhibition at 10 µM (CDK18/Cyclin Y; independent experiment 1): -4.7%
inhibition at 10 µM (CDK18/Cyclin Y; independent experiment 2): 15.4%
inhibition at 10 µM (CDK16/Cyclin Y; independent experiment 1): 11.3%
inhibition at 10 µM (CDK16/Cyclin Y; independent experiment 2): -5.5%
inhibition at 10 µM (CDK4/Cyclin D1; average of experiments): -37.2%
inhibition at 10 µM (CDK4/Cyclin D1; independent experiment 1): 8.3%
inhibition at 10 µM (CDK4/Cyclin D1; independent experiment 2): -82.7%
inhibition at 10 µM (CDK15/Cyclin Y; average of experiments): 0.0365%
inhibition at 10 µM (CDK15/Cyclin Y; independent experiment 1): 4.9%
inhibition at 10 µM (CDK15/Cyclin Y; independent experiment 2): -4.9%
inhibition at 10 µM (CDK9/Cyclin K; average of experiments): 8.4%
inhibition at 10 µM (CDK9/Cyclin K; independent experiment 1): -0.3%
inhibition at 10 µM (CDK9/Cyclin K; independent experiment 2): 17.1%
inhibition at 10 µM (CDK13/Cyclin K; average of experiments): 2.3%
inhibition at 10 µM (CDK13/Cyclin K; independent experiment 1): 3%
inhibition at 10 µM (CDK13/Cyclin K; independent experiment 2): 1.7%
